One data set deals with T1, hCA I (Homo sapiens, UniProt P00915).
T1 construct: made in house
Description: Stopped-flow CO2 hydrase assay, hCA I. The class given is biochemical. The settings on record: mean from 3 assays. Here is the method: (§1) An SX.18MV-R Applied Photophysics (Oxford, UK) stopped-flow instrument was used to assay the catalytic/inhibition of various CA isozymes. […] Saturated CO2 solutions in water at 25 °C were used as a substrate. Stock solutions of inhibitors were prepared at a concentration of 10 μM (in DMSO-water 1:1, v/v) and dilutions up to 0.01 nM done with the assay buffer mentioned above. […] Inhibitor and enzyme solutions were preincubated together for 10 min at room temperature prior to the assay, in order to allow for the formation of the E–I complex. […] The inhibition constants were obtained by non-linear least-squares methods using the Cheng–Prusoff equation, as reported earlier, and represent the mean from at least three different determinations. All CA isozymes used here were recombinant proteins obtained as reported earlier by our group.

In the next data set the target is T2, hCA II (Homo sapiens, UniProt P00918).
T2 construct: made in house
Nature of the data set: Stopped-flow CO2 hydrase assay, hCA II. The settings on record: for Ki: stopped flow, mean from 3 assays; for hCA II vs. hCA XII preference: ratio of Ki values. The format is biochemical. Here is the method: as §1

The target in the next data set is T3, hCA IX (Homo sapiens, UniProt Q16790).
T3 construct: made in house
Description: Stopped-flow CO2 hydrase assay, hCA IX. The format is biochemical. The note with it: for Ki: stopped flow, mean from 3 assays; for more potent on hCA IX than on hCA XII: ratio of Ki values. Here is the method:
as §1

The next data set deals with T4, hCA XII (Homo sapiens, UniProt O43570).
T4 construct: made in house
T4 sequence (O43570 25-354): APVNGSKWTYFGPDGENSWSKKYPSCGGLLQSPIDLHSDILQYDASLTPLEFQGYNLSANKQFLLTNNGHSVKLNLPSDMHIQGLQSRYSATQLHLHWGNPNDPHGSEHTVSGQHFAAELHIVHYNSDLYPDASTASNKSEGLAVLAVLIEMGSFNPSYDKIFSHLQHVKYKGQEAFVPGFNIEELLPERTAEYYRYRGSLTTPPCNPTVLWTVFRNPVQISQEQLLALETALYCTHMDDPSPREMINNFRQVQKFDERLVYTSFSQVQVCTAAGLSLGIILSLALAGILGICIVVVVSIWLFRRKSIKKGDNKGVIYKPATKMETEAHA
Nature of the data set: Stopped-flow CO2 hydrase assay, hCA XII. The format is biochemical. The settings on record: for Ki: stopped flow, mean from 3 assays. Here is the method:
as §1

The target in the next data set is T5, P-gp (Homo sapiens, UniProt P08183).
T5 construct: doxorubicin resistant K562/DOX cell line overexpresses almost exclusively the transporter membrane protein P-gp; endogenous in cells; host or cells: K562/DOX (doxorubicin-selected human erythroleukemia cells)
T5 sequence (P08183 whole entry): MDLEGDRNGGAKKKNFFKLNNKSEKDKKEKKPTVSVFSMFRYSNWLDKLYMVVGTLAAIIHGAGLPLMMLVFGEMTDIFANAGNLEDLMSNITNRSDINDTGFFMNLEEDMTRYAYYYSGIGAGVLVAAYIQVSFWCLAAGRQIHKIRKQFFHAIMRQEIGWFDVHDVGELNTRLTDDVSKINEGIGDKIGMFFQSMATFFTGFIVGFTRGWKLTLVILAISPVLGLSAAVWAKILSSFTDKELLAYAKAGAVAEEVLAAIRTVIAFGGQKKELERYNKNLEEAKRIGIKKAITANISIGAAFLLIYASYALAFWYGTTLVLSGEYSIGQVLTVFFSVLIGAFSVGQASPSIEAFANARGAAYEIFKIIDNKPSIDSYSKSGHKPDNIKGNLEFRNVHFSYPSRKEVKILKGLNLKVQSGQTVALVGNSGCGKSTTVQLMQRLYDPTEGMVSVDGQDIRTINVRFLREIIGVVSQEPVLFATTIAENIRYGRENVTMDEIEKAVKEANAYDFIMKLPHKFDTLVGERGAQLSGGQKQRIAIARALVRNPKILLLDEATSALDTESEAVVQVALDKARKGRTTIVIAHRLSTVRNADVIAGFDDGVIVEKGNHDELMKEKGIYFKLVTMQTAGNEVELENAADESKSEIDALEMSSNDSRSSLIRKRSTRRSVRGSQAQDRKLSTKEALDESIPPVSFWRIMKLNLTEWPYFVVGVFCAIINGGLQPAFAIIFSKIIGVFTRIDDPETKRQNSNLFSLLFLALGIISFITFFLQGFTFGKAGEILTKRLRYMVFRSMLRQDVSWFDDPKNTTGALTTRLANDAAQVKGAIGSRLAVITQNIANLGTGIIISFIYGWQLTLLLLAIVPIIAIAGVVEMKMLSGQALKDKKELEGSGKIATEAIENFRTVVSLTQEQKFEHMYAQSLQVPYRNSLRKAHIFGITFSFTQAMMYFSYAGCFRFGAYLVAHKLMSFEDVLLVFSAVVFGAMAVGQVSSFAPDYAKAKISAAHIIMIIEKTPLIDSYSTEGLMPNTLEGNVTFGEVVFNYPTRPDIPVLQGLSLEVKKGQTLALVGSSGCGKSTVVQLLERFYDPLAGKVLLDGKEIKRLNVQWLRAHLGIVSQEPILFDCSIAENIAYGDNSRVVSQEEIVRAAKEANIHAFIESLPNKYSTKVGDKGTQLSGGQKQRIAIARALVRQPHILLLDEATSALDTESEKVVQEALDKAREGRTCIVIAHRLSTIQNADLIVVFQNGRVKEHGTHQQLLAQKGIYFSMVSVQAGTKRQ
Description: Rhodamine-123 uptake test on K562/DOX cells (flow cytometry). The format is cell-based. Here is the method:
The results were expressed as the FR (fluorescence ratio), which is the ratio between the average fluorescence intensity of rhodamine in the presence and in the absence of modulators. Value 1 was attributed to the average fluorescence intensity of the samples exposed only to rhodamine.
An aliquot of cells (control) was incubated with the fluorochrome in the absence of inhibitors.
At the end of the uptake, cells were sedimented, washed twice in ice-cold PBS, placed in PBS on ice, and kept in the dark until flow cytometric analysis.
The histograms were generated by program GraphPad Prism 5 (GraphPad Prism software, Inc., San Diego, CA, USA); the data were obtained from the ratio between the average fluorescence intensity of the samples preincubated with the compounds under study and subsequently exposed to rhodamine, and the fluorescence of the sample exposed only to the rhodamine.
Background: A flow cytometer gives signals particle by particle.

SMILES strings stand for the structures.

What is called Ki is a dissociation constant, usually derived from enzyme kinetics or from competition with a known ligand. High values mean a looser hold on the target, low ones a stronger hold on the target.

T1 sequence (P00915 whole entry): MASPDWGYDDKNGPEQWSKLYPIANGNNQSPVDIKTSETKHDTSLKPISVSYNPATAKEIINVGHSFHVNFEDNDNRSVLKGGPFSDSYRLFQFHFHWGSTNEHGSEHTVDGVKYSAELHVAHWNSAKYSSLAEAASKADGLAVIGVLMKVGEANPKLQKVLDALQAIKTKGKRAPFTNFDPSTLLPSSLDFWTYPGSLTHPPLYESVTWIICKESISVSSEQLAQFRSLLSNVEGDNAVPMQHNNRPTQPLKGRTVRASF

As to `COc1cc(/C=C/C(=O)OCCCCCN(C)CCCOC(=O)c2ccc(S(N)(=O)=O)cc2)cc(OC)c1OC` [Compound 17, (E)-3-(methyl(5-((3-(3,4,5-trimethoxyphenyl)acryloyl)oxy)pentyl)amino)propyl 4-sulfamoyl benzoate], the inhibition constant (Ki) was 56.6 nM on hCA I, 204 nM on hCA II, 215 nM on hCA IX and 33.1 nM on hCA XII. Also, the “FR (fluorescence ratio, Rhd 123 uptake with/without modulator)” value on P-gp (compound 3 µM) is 1.13; at P-gp (compound 30 µM), 3.90.

In the case of `COc1cc(/C=C/C(=O)OCCCCCCCN(C)CCCCCCCOC(=O)c2ccc(S(N)(=O)=O)cc2)cc(OC)c1OC` [Compound 22, (E)-7-(methyl(7-((3-(3,4,5-trimethoxyphenyl)acryloyl)oxy)heptyl)amino)heptyl 4-sulfamoyl benzoate], the inhibition constant (Ki) on hCA I is 73.7 nM; on hCA II, 445 nM; at hCA IX, 172 nM; on hCA XII, 96.7 nM. In addition, the “FR (fluorescence ratio, Rhd 123 uptake with/without modulator)” value at P-gp (compound 3 µM) worked out at 2.85; on P-gp (compound 30 µM), 3.20.

As for `COc1cc(/C=C/C(=O)OCCCN(C)CCCCCOC(=O)c2ccc(S(N)(=O)=O)cc2)cc(OC)c1OC` [Compound 16, (E)-5-(methyl(3-((3-(3,4,5-trimethoxyphenyl)acryloyl)oxy)propyl)amino)pentyl 4-sulfamoyl benzoate], the Ki was found to be 447 nM at hCA I, 555 nM on hCA II, 211 nM at hCA IX and 94.3 nM on hCA XII. For the same compound, the “FR (fluorescence ratio, Rhd 123 uptake with/without modulator)” value at P-gp (compound 3 µM) is reported as 1.08; at P-gp (compound 30 µM), 1.83.

Consider `CN(CCCCCOC(=O)COc1ccc2ccc(=O)oc2c1)CCCOC(=O)c1c2ccccc2cc2ccccc12` [Compound 12, 3-(methyl(5-(2-((2-oxo-2H-chromen-7-yl)oxy)acetoxy)pentyl)amino)propyl anthracene-9-carboxylate], for which the Ki at hCA I is over 10000 nM; on hCA II, over 10000 nM; on hCA IX, 151 nM; at hCA XII it was 45.7 nM. Moreover, the “FR (fluorescence ratio, Rhd 123 uptake with/without modulator)” value at P-gp (compound 3 µM) was 1.00; on P-gp (compound 30 µM), 2.53.

Take `COc1cc(C(=O)OCCCCCCN(C)CCCOC(=O)COc2ccc3ccc(=O)oc3c2)cc(OC)c1OC` [Compound 10, 6-(methyl(3-(2-((2-oxo-2H-chromen-7-yl)oxy)acetoxy)propyl)amino)hexyl 3,4,5-trimethoxy benzoate]: the inhibition constant Ki was over 10000 nM on hCA I, over 10000 nM at hCA II, 103 nM on hCA IX and 8.9 nM at hCA XII. Moreover, the “FR (fluorescence ratio, Rhd 123 uptake with/without modulator)” value was 1.16 on P-gp (compound 3 µM) and 2.18 at P-gp (compound 30 µM).

Regarding `COc1cc(C(=O)OCCCCCCN(C)CCCOC(=O)c2ccc(S(N)(=O)=O)cc2)cc(OC)c1OC` [Compound 24, 6-(methyl(3-((4-sulfamoylbenzoyl)oxy)propyl)amino)hexyl 3,4,5-trimethoxybenzoate], the Ki was found to be 83.5 nM at hCA I, 8.9 nM on hCA II, 25.3 nM on hCA IX and 57.6 nM on hCA XII. Further, the “hCA II vs. hCA XII preference” value at hCA II turned out to be 6.5 times. At hCA IX, the “more potent on hCA IX than on hCA XII” value was “twice”. Further, the “FR (fluorescence ratio, Rhd 123 uptake with/without modulator)” value on P-gp (compound 3 µM) turned out to be 1.42; on P-gp (compound 30 µM), 2.88.

For `COc1cc(C(=O)OCCCN(C)CCCCCOC(=O)c2ccc(S(N)(=O)=O)cc2)cc(OC)c1OC` [Compound 23, 3-(methyl(5-((4-sulfamoylbenzoyl)oxy)pentyl)amino)propyl 3,4,5-trimethoxybenzoate], the inhibitory constant (Ki) on hCA I is 284 nM; on hCA II, 128 nM; on hCA IX, 26.6 nM; on hCA XII, 63.7 nM. For the same compound, the “more potent on hCA IX than on hCA XII” value at hCA IX is reported as “twice”. The “FR (fluorescence ratio, Rhd 123 uptake with/without modulator)” value on P-gp (compound 3 µM) was 1.00; at P-gp (compound 30 µM) it was 1.66.

For `COc1cc(/C=C/C(=O)OCCCCCCN(C)CCCCOC(=O)c2ccc(S(N)(=O)=O)cc2)cc(OC)c1OC` [Compound 20, (E)-4-(methyl(6-((3-(3,4,5-trimethoxyphenyl)acryloyl)oxy)hexyl)amino)butyl 4-sulfamoyl benzoate], the inhibition constant (Ki) at hCA I is 84.5 nM; at hCA II it was 14 nM; on hCA IX, 33.9 nM; at hCA XII, 41.7 nM. Also, the “hCA II vs. hCA XII preference” value on hCA II is recorded as 3 times. Also, the “FR (fluorescence ratio, Rhd 123 uptake with/without modulator)” value was 1.01 on P-gp (compound 3 µM) and 2.58 at P-gp (compound 30 µM).

In the case of `COc1cc(/C=C/C(=O)OCCCN(C)CCCOC(=O)c2ccc(S(N)(=O)=O)cc2)cc(OC)c1OC` [Compound 15, (E)-3-(methyl(3-((3-(3,4,5-trimethoxyphenyl)acryloyl)oxy)propyl)amino)propyl 4-sulfamoyl benzoate], the inhibition constant Ki on hCA I came to 55.1 nM; at hCA II, 152 nM; at hCA IX, 178 nM; at hCA XII, 91 nM. For the same compound, the “FR (fluorescence ratio, Rhd 123 uptake with/without modulator)” value worked out at 1.00 at P-gp (compound 3 µM) and 2.30 on P-gp (compound 30 µM).

With `COc1cc(/C=C/C(=O)OCCCCCN(C)CCCCCOC(=O)COc2ccc3ccc(=O)oc3c2)cc(OC)c1OC` [Compound 4, (E)-5-(methyl(5-(2-((2-oxo-2H-chromen-7-yl)oxy)acetoxy)pentyl)amino)pentyl 3-(3,4,5-trimethoxyphenyl)acrylate], the inhibition constant Ki is over 10000 nM on hCA I, over 10000 nM at hCA II, 26.6 nM on hCA IX and 18.9 nM on hCA XII. For the same compound, the “FR (fluorescence ratio, Rhd 123 uptake with/without modulator)” value was found to be 1.99 on P-gp (compound 3 µM) and 5.45 on P-gp (compound 30 µM).

Turning to `CN(CCCCCCOC(=O)c1c2ccccc2cc2ccccc12)CCCOC(=O)c1ccc(S(N)(=O)=O)cc1` [Compound 27, 6-(methyl(3-((4-sulfamoylbenzoyl)oxy)propyl)amino)hexyl anthracene-9-carboxylate], the Ki at hCA I was 617 nM; at hCA II, 422 nM; on hCA IX, 28.2 nM; on hCA XII it was 31.3 nM. In addition, the “FR (fluorescence ratio, Rhd 123 uptake with/without modulator)” value on P-gp (compound 3 µM) was found to be 1.08; at P-gp (compound 30 µM), 2.03.

`COc1cc(/C=C/C(=O)OCCCCCCN(C)CCCOC(=O)c2ccc(S(N)(=O)=O)cc2)cc(OC)c1OC` [Compound 19, (E)-3-(methyl(6-((3-(3,4,5-trimethoxyphenyl)acryloyl)oxy)hexyl)amino)propyl 4-sulfamoyl benzoate]: the Ki at hCA I was 510 nM; on hCA II, 8.4 nM; on hCA IX, 39.7 nM; at hCA XII it was 58.6 nM. The “hCA II vs. hCA XII preference” value on hCA II came to 7 times. Moreover, the entries for the “FR (fluorescence ratio, Rhd 123 uptake with/without modulator)” value at P-gp (compound 3 µM) and at P-gp (compound 30 µM) were 1.06 and 3.23, respectively.

Regarding `COc1cc(C(=O)OCCCN(C)CCCCCOC(=O)COc2ccc3ccc(=O)oc3c2)cc(OC)c1OC` [Compound 9, 3-(methyl(5-(2-((2-oxo-2H-chromen-7-yl)oxy)acetoxy)pentyl)amino)propyl 3,4,5-trimethoxy benzoate], the Ki is over 10000 nM on hCA I, over 10000 nM at hCA II, 133 nM on hCA IX and 9.2 nM on hCA XII. Further, the “FR (fluorescence ratio, Rhd 123 uptake with/without modulator)” value on P-gp (compound 3 µM) came out at 1.00; at P-gp (compound 30 µM) it was 3.95.

With `CN(CCCCCCOC(=O)c1c2ccccc2cc2ccccc12)CCCOC(=O)COc1ccc2ccc(=O)oc2c1` [Compound 13, 6-(methyl(3-(2-((2-oxo-2H-chromen-7-yl)oxy)acetoxy)propyl)amino)hexyl anthracene-9-carboxylate], the Ki at hCA I was over 10000 nM; on hCA II, over 10000 nM; at hCA IX, 82.7 nM; on hCA XII, 9.1 nM. Moreover, the “preference for hCA XII with respect to hCA IX” value at hCA XII (ratio of Ki values) is “nine”. The “FR (fluorescence ratio, Rhd 123 uptake with/without modulator)” value came to 1.43 on P-gp (compound 3 µM) and 2.45 at P-gp (compound 30 µM).

In the case of `COc1cc(C(=O)OCCCCCCCN(C)CCOC(=O)COc2ccc3ccc(=O)oc3c2)cc(OC)c1OC` [Compound 11, 7-(methyl(2-(2-((2-oxo-2H-chromen-7-yl)oxy)acetoxy)ethyl)amino)heptyl 3,4,5-trimethoxy benzoate], the inhibition constant (Ki) at hCA I was over 10000 nM; on hCA II, over 10000 nM; on hCA IX it was 97.1 nM; on hCA XII it was 8.3 nM. In addition, the “FR (fluorescence ratio, Rhd 123 uptake with/without modulator)” value was 1.11 on P-gp (compound 3 µM) and 1.58 at P-gp (compound 30 µM).
